In patent publication US20160221974A1, “SODIUM CHANNEL MODULATORS FOR THE TREATMENT OF PAIN AND DIABETES” (CHROMOCELL CORPORATION, priority 2013, published 2016):

molecular target: T1, hNaV1.7 (Homo sapiens, UniProt Q15858); test: FDSS Membrane Potential In-Vitro Assay; assay type: cell-based; conditions: stimulation with veratridine and scorpion venom, read-out: NaV1.7 IC50
T1 construct: expressed in transfected cells
T1 sequence (Q15858 whole entry): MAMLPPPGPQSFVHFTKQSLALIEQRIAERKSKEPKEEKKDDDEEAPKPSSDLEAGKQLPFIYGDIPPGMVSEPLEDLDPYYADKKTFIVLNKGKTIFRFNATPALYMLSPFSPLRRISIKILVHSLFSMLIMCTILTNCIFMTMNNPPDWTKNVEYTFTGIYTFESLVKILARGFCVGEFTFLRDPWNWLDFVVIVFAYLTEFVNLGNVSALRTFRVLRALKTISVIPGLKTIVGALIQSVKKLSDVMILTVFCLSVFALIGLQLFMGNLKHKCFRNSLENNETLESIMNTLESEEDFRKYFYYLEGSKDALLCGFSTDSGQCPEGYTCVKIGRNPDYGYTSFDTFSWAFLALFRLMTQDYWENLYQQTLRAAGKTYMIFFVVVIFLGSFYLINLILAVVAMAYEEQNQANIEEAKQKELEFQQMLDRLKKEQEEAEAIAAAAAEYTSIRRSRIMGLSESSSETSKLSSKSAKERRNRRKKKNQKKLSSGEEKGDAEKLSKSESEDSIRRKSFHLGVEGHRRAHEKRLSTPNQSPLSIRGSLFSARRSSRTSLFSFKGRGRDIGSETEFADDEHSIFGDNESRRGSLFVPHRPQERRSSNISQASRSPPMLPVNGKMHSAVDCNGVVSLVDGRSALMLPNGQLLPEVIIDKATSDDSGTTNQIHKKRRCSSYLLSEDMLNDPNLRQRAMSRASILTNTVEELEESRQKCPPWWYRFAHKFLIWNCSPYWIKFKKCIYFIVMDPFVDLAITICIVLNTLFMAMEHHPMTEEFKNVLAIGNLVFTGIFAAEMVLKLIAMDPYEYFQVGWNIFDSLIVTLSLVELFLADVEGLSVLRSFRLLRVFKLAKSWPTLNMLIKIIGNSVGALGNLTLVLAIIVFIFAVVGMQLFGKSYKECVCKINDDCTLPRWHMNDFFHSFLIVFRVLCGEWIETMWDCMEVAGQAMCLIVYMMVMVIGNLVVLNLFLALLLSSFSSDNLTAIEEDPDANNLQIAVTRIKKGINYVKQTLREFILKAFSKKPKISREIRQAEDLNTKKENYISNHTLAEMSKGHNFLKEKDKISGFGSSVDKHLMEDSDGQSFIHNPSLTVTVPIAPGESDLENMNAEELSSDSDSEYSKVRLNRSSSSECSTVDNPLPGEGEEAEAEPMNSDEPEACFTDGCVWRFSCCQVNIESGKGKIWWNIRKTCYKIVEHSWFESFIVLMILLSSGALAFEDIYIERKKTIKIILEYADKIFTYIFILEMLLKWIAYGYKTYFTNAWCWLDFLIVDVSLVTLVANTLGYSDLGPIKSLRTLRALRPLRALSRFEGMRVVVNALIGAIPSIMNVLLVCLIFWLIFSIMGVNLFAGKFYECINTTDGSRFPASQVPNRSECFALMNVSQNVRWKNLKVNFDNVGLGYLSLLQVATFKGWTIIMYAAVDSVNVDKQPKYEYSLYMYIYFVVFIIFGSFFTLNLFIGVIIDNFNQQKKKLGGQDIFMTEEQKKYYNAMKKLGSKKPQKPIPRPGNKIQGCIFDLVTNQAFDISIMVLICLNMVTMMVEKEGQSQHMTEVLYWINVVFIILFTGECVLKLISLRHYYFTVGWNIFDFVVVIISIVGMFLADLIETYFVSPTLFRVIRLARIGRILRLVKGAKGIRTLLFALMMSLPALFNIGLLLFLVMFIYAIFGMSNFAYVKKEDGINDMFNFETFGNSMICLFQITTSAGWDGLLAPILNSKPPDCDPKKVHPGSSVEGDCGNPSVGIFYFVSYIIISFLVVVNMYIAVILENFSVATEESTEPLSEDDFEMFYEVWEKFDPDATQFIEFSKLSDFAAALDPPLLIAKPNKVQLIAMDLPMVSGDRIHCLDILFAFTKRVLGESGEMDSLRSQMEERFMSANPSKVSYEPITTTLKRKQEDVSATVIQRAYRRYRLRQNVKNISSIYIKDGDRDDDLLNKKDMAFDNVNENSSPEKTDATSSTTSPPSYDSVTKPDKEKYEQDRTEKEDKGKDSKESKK
T1 sequence (Q07699 19-218 partner): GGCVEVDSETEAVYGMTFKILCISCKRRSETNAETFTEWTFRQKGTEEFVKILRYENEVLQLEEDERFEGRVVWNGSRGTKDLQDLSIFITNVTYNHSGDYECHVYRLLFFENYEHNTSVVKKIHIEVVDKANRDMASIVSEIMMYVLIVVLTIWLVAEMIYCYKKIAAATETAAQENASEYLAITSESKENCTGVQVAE
T1 sequence (O60939 30-215 partner): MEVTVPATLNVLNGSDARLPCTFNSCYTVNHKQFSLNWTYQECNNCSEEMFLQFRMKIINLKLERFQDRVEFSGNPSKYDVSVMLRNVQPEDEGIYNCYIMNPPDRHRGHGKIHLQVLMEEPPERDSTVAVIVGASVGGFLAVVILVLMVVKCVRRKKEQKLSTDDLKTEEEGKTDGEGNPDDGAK

Row | SMILES | IC50 [nM]
1 | O=C(O)CNC(=O)c1cccc(-c2cc(Cl)ccc2Oc2cc(F)c(S(=O)(=O)Nc3ncns3)cc2Cl)n1 [Compound 7, 2-(6-(2-(4-(N-(1,2,4-thiadiazol-5-yl)sulfamoyl)-2-chloro-5-fluorophenoxy)-5-chlorophenyl)picolinamido)acetic acid] | 130 to 1000
2 | N#Cc1cc(S(=O)(=O)Nc2cscn2)ccc1Oc1ccc(Cl)cc1CCCNCCC(=O)O [Compound 23, 3-((3-(5-chloro-2-(2-cyano-4-(N-(thiazol-4-yl)sulfamoyl)phenoxy)phenyl)propyl)amino)propanoic acid] | 1000 to 20000
3 | CCOC(=O)CNCCCc1cc(Cl)ccc1Oc1cc(F)c(S(=O)(=O)Nc2nccs2)cc1Cl [Compound 35, ethyl 2-((3-(5-chloro-2-(2-chloro-5-fluoro-4-(N-(thiazol-2-yl)sulfamoyl)phenoxy)phenyl)propyl)amino)acetate] | 100 to 500
4 | O=S(=O)(Nc1nccs1)c1cc(Cl)c(Oc2ccc(Cl)cc2CCCNc2cn[nH]c2)cc1F [Compound 42, 4-(2-(3-((1H-pyrazol-4-yl)amino)propyl)-4-chlorophenoxy)-5-chloro-2-fluoro-N-(thiazol-2-yl)benzenesulfonamide] | 1000 to 20000
5 | O=C(O)CCNCCCc1cc(Cl)ccc1Oc1cc(F)c(S(=O)(=O)Nc2nccs2)cc1F [Compound 43, 3-((3-(5-chloro-2-(2,5-difluoro-4-(N-(thiazol-2-yl)sulfamoyl)phenoxy)phenyl)propyl)amino)propanoic acid] | 100 to 500
6 | O=S(=O)(Nc1cscn1)c1cc(Cl)c(Oc2ccc(Cl)cc2CCCNc2cc[nH]n2)cc1F [Compound 45, 4-(2-(3-((1H-pyrazol-3-yl)amino)propyl)-4-chlorophenoxy)-5-chloro-2-fluoro-N-(thiazol-4-yl)benzenesulfonamide] | 1000 to 20000
7 | CNC(=O)CNCCCc1cc(Cl)ccc1Oc1cc(F)c(S(=O)(=O)Nc2cscn2)cc1Cl [Compound 46, 2-((3-(5-chloro-2-(2-chloro-5-fluoro-4-(N-(thiazol-4-yl)sulfamoyl)phenoxy)phenyl)propyl)amino)-N-methylacetamide] | 100 to 500
8 | O=S(=O)(Nc1cscn1)c1cc(Cl)c(Oc2ccc(Cl)cc2CCCN2CCc3[nH]ncc3C2)cc1F [Compound 48, 5-chloro-4-(4-chloro-2-(3-(6,7-dihydro-1H-pyrazolo[4,3-c]pyridin-5(4H)-yl)propyl)phenoxy)-2-fluoro-N-(thiazol-4-yl)benzenesulfonamide] | 500 to 1000
9 | CC(C)CCOC(=O)CNCCCc1cc(Cl)ccc1Oc1cc(F)c(S(=O)(=O)Nc2nccs2)cc1Cl [Compound 50, isopentyl 2-((3-(5-chloro-2-(2-chloro-5-fluoro-4-(N-(thiazol-2-yl)sulfamoyl)phenoxy)phenyl)propyl)amino)acetate] | 500 to 1000
10 | CC(C)OC(=O)CNCCCc1cc(Cl)ccc1Oc1cc(F)c(S(=O)(=O)Nc2nccs2)cc1Cl [Compound 51, isopropyl 2-((3-(5-chloro-2-(2-chloro-5-fluoro-4-(N-(thiazol-2-yl)sulfamoyl)phenoxy)phenyl)propyl)amino)acetate] | 500 to 1000
11 | O=S(=O)(Nc1cscn1)c1cc(Cl)c(Oc2ccc(Cl)cc2CCCN2CCn3ccnc3C2)cc1F [Compound 55, 5-chloro-4-(4-chloro-2-(3-(5,6-dihydroimidazo[1,2-a]pyrazin-7(8H)-yl)propyl)phenoxy)-2-fluoro-N-(thiazol-4-yl)benzenesulfonamide] | 100 to 500
12 | O=S(=O)(Nc1nccs1)c1cc(Cl)c(Oc2ccc(Cl)cc2-c2cnn3c2NCCC3)cc1F [Compound 57, 5-chloro-4-(4-chloro-2-(4,5,6,7-tetrahydropyrazolo[1,5-a]pyrimidin-3-yl)phenoxy)-2-fluoro-N-(thiazol-2-yl)benzenesulfonamide] | 100 to 500
13 | CS(=O)(=O)CCNCCCc1cc(Cl)ccc1Oc1cc(F)c(S(=O)(=O)Nc2nccs2)cc1Cl [Compound 59, 5-chloro-4-(4-chloro-2-(3-((2-(methylsulfonyl)ethyl)amino)propyl)phenoxy)-2-fluoro-N-(thiazol-2-yl)benzenesulfonamide] | 100 to 500
14 | CCOC(=O)CN(C)CCCc1cc(Cl)ccc1Oc1cc(F)c(S(=O)(=O)Nc2nccs2)cc1Cl [Compound 68, ethyl 2-((3-(5-chloro-2-(2-chloro-5-fluoro-4-(N-(thiazol-2-yl)sulfamoyl)phenoxy)phenyl)propyl)(methyl)amino)acetate] | 500 to 1000

molecular target: T2, NaV1.7 (Homo sapiens, UniProt Q15858); test: Patchliner Electrophysiological In-Vitro Assay (NaV1.7); assay type: cell-based; conditions: Patchliner patch clamp, HEK293, holding at V1/2
T2 construct: expressed in transfected cells
T2 sequence (Q15858 whole entry): as the sequence (Q15858 whole entry) above
T2 sequence (Q07699 19-218 partner): as the sequence (Q07699 19-218 partner) above
T2 sequence (O60939 30-215 partner): as the sequence (O60939 30-215 partner) above
Method: In vitro assays were performed in recombinant cell line that stably express a heterotrimeric protein of interest from an introduced nucleic acid encoding the alpha subunit (hNav1.7, SCN9A), the beta subunit (SCNB1) and the beta subunit (SCNB2). The cell line was engineered using Human Embryonic Kidney 293 cells as host background. Additional cell lines stably expressing recombinant Nav1.7 or Nav1.5 alpha subunit alone or in combination with various beta subunits can also be used in in-vitro assays.
The recording of sodium current from stable HEK293 cell lines expressing NaV1.7 or NaV1.5 was done on a Patchliner® instrument, Nanion Technologies. The Patchliner® is a fully automated bench-top patch clamp platform and can record simultaneously from up to eight single cells with GΩ seals.
For patch-clamp experiments, cells were grown under standard culturing conditions in Dulbecco's Modified Eagles medium supplemented with 10% fetal bovine serum, glutamine and HEPES. Cells were harvested and kept in suspension for up to 4 hours with no significant change in quality or ability to patch. Whole cell patch clamp recordings were conducted according to Nanion's standard procedure for the Patchliner®. Experiments were conducted at room temperature.
Voltage protocols were designed to establish: 1) peak current amplitude (Imax), 2) test potential (Vmax) and 3) half-inactivation potential (V1/2) for each of the eight individual cells. To determine V1/2, a standard steady-state inactivation protocol was executed using a series of fifteen 500 ms depolarizing pre-pulses in 10 mV increments (starting at −130 mV) and immediately followed by a 10 ms test pulse to Vmax. To estimate test compound affinity to the inactivated state of sodium channel (Ki), the holding potential for each cell was set automatically to the V1/2 calculated from a steady-state inactivation data. The current was activated with the following voltage protocol: holding at V1/2 for 2-5 seconds, return to the −120 mV for 5-10 ms to relieve fast inactivation, stepping to test potential (Vmax) for 10-20 ms. This voltage protocol was repeated every 10 seconds to establish the baseline with 2-3 buffer additions followed by the test compound addition. The dose-dependent inhibition was analyzed using Nanion's Data Analysis Package.

Row | SMILES | IC50 [nM]
15 | N#Cc1cc(S(=O)(=O)Nc2cscn2)ccc1Oc1ccc(Cl)cc1CCCNCCC(=O)O [Compound 23, 3-((3-(5-chloro-2-(2-cyano-4-(N-(thiazol-4-yl)sulfamoyl)phenoxy)phenyl)propyl)amino)propanoic acid] | 100 to 1000
16 | COC(=O)CNCCCc1cc(Cl)ccc1Oc1cc(F)c(S(=O)(=O)Nc2cscn2)cc1Cl [Compound 24, methyl 2-((3-(5-chloro-2-(2-chloro-5-fluoro-4-(N-(thiazol-4-yl)sulfamoyl)phenoxy)phenyl)propyl)amino)acetate] | < 100
17 | O=C(O)CCNCCCc1cc(F)ccc1Oc1cc(F)c(S(=O)(=O)Nc2cscn2)cc1Cl [Compound 25, 3-((3-(2-(2-chloro-5-fluoro-4-(N-(thiazol-4-yl)sulfamoyl)phenoxy)-5-fluorophenyl)propyl)amino)propanoic acid] | 100 to 1000
18 | O=C(O)CCNCCCc1cc(Cl)ccc1Oc1cc(F)c(S(=O)(=O)Nc2nccs2)cc1Cl [Compound 29, 3-((3-(5-chloro-2-(2-chloro-5-fluoro-4-(N-(thiazol-2-yl)sulfamoyl)phenoxy)phenyl)propyl)amino)propanoic acid] | < 100
19 | O=S(=O)(Nc1cscn1)c1cc(Cl)c(Oc2ccc(Cl)cc2-c2cnn3c2NCCC3)cc1F [Compound 33, 5-chloro-4-(4-chloro-2-(4,5,6,7-tetrahydropyrazolo[1,5-a]pyrimidin-3-yl)phenoxy)-2-fluoro-N-(thiazol-4-yl)benzenesulfonamide] | 100 to 1000
20 | CCCCCOC(=O)N(CCCc1cc(Cl)ccc1Oc1cc(F)c(S(=O)(=O)Nc2nccs2)cc1Cl)CC(=O)O [Compound 53, 2-((3-(5-chloro-2-(2-chloro-5-fluoro-4-(N-(thiazol-2-yl)sulfamoyl)phenoxy)phenyl)propyl)((pentyloxy)carbonyl)amino)acetic acid] | < 100
21 | NC(=O)CNCCCc1ccccc1Oc1cc(F)c(S(=O)(=O)Nc2cscn2)cc1Cl [Compound 60, 2-((3-(2-(2-chloro-5-fluoro-4-(N-(thiazol-4-yl)sulfamoyl)phenoxy)phenyl)propyl)amino)acetamide] | < 100
22 | C#CCN(CCCc1cc(Cl)ccc1Oc1cc(F)c(S(=O)(=O)Nc2cscn2)cc1Cl)CC(=O)O [Compound 61, 2-((3-(5-chloro-2-(2-chloro-5-fluoro-4-(N-(thiazol-4-yl)sulfamoyl)phenoxy)phenyl)propyl)(prop-2-yn-1-yl)amino)acetic acid] | < 100
23 | C=CCN(CCCc1cc(Cl)ccc1Oc1cc(F)c(S(=O)(=O)Nc2nccs2)cc1Cl)CC(=O)O [Compound 62, 2-(allyl(3-(5-chloro-2-(2-chloro-5-fluoro-4-(N-(thiazol-2-yl)sulfamoyl)phenoxy)phenyl)propyl)amino)acetic acid] | < 100
24 | NC(=O)CNCCCc1cc(Cl)ccc1Oc1cc(F)c(S(=O)(=O)Nc2nccs2)cc1Cl [Compound 63, 2-((3-(5-chloro-2-(2-chloro-5-fluoro-4-(N-(thiazol-2-yl)sulfamoyl)phenoxy)phenyl)propyl)amino)acetamide] | < 100
25 | CC#CCN(CCCc1cc(Cl)ccc1Oc1cc(F)c(S(=O)(=O)Nc2nccs2)cc1Cl)CC(=O)O [Compound 64, 2-(but-2-yn-1-yl(3-(5-chloro-2-(2-chloro-5-fluoro-4-(N-(thiazol-2-yl)sulfamoyl)phenoxy)phenyl)propyl)amino)acetic acid] | < 100
26 | CCCN(CCCc1cc(Cl)ccc1Oc1cc(F)c(S(=O)(=O)Nc2nccs2)cc1Cl)CC(=O)O [Compound 65, 2-((3-(5-chloro-2-(2-chloro-5-fluoro-4-(N-(thiazol-2-yl)sulfamoyl)phenoxy)phenyl)propyl)(propyl)amino)acetic acid] | < 100
27 | C#CCN(CCCc1cc(Cl)ccc1Oc1cc(F)c(S(=O)(=O)Nc2nccs2)cc1Cl)CCC(=O)O [Compound 66, 3-((3-(5-chloro-2-(2-chloro-5-fluoro-4-(N-(thiazol-2-yl)sulfamoyl)phenoxy)phenyl)propyl)(prop-2-yn-1-yl)amino)propanoic acid] | < 100
28 | C#CCN(CCCc1cc(Cl)ccc1Oc1cc(F)c(S(=O)(=O)Nc2nccs2)cc1F)CC(=O)O [Compound 67, 2-((3-(5-chloro-2-(2,5-difluoro-4-(N-(thiazol-2-yl)sulfamoyl)phenoxy)phenyl)propyl)(prop-2-yn-1-yl)amino)acetic acid] | < 100
29 | NC(=O)CNCCCc1cc(Cl)ccc1Oc1cc(F)c(S(=O)(=O)Nc2cscn2)cc1F [Compound 69, 2-((3-(5-chloro-2-(2,5-difluoro-4-(N-(thiazol-4-yl)sulfamoyl)phenoxy)phenyl)propyl)amino)acetamide] | < 100
